We go through 9 compounds from US20250353831A1, “NOVEL HETEROBICYCLIC COMPOUND FOR INHIBITING YAP-TEAD INTERACTION AND PHARMACEUTICAL COMPOSITION COMPRISING SAME” (priority 2022, published 2025).

For experiment [1], the system named is NCI-H226 cells. As to the kind of experiment: Cell growth inhibition test (SRB) in NCI-H226 cells. In kind it is cell-based. The note with it: Homo sapiens, 144 h, NCI-H226 NF2 gene-deficient mesothelioma cancer cell line, 6 days. How it is done: The ability of the synthetic compounds to inhibit the growth of NCI-H226 cells was identified. NCI-H226, which is an NF2 gene-deficient mesothelioma cancer cell line, was cultured in a RPMI 1640 medium supplemented with 10% FBS and 1% Penicillin/Streptomycin. The cultured cells were aliquoted into a 96-well plate at a density of 0.7×10^3 cells/100 μl and cultured for 24 hours, and then 100 μl of a test compound diluted to 2× concentration was mixed with each well and cultured for 6 days. SRB test method was used to measure cell growth inhibition, and a 50% inhibitory concentration (GI50) on cell growth by the compound was calculated by using GraphPad Prism 9.
A GI50value less than 100 nM was expressed as A and a GI50 value not less than 100 nM was expressed as B.

The test system of experiment [2] is TEAD. Nature of the experiment: TEAD reporter activity inhibition test (luciferase reporter in MCF7 cell line). In kind it is cell-based. Particulars: Homo sapiens; MCF7 TEAD (GTIIC) firefly luciferase reporter cell line, 24 hours, ONE-Glo luminescence; read-out: IC50 on TEAD transcription activity. How it is done: The ability of the synthetic compounds to inhibit transcription of a target gene by TEAD was measured. This evaluation method was a method of measuring transcriptional activity of TEAD by measuring luminescence intensity of luciferase expressed in the case where TEAD binds to a target gene and activates transcription thereof, by using MCF7 cell line (BPS Bioscienc, Inc., USA) constructed by introducing firefly luciferase reporter gene into GTIIC (5′-ACATTCCA-3′), which is a specific binding structure of TEAD. The cell line was cultured in a MEM medium supplemented with 10% FBS, 1% Penicillin/Streptomycin, 1% non-essential amino acids, 10 μg/ml insulin, and 400 μg/ml Geneticin. In the test of inhibiting the TEAD reporter activity, Geneticin was excluded. The cells were aliquoted into a white 96-well plate at a density of 4×10^4 cells/100 μl and cultured for 6 hours. 50 μl of the test compound diluted to 3× concentration was mixed with each well. After culturing the cell line for 24 hours, signals of luciferase were measured by luminescence according to manufacturer's protocols by using ONE-Glo luciferase assay system (Promega, E6120). A 50% inhibitory concentration (IC50) on TEAD transcription activity was calculated by using GraphPad Prism 9.
An IC50 value less than 100 nM was expressed as A, an IC50 value not less than 100 nM but less than 500 nM was expressed as B, and an IC50 value not less than 500 nM was expressed as C.
A general note: In a reporter assay the amount or activity of a reporter protein is the signal.

SMILES strings stand for the structures.

Regarding `C=CC(=O)Nc1ccc2c(c1)c(-c1cn(C3CC3)cn1)cn2-c1ccc(C(F)(F)F)cc1` [Synthetic compound 2, N-(3-(1-cyclopropyl-1H-imidazol-4-yl)-1-(4-(trifluoromethyl)phenyl)-1H-indol-5-yl) acrylamide], the GI50 in experiment [1] is < 0.1 µM. In addition, the IC50 in experiment [2] was < 0.1 µM.
Take `C=CC(=O)Nc1cnc2c(c1)c(-c1cn(C3CC3)cn1)cn2-c1ccc(C(F)(F)F)cc1` [Synthetic compound 8, N-(3-(1-cyclopropyl-1H-imidazol-4-yl)-1-(4-(trifluoromethyl)phenyl)-1H-pyrrolo[2,3-b]pyridin-5-yl)acrylamide]: the GI50 in experiment [1] is < 0.1 µM. Also, the IC50 in experiment [2] was < 0.1 µM.
For the compound `C=CC(=O)Nc1ccc2c(c1)c(-c1cn(CCOC)cn1)cn2-c1ccc(C(F)(F)F)cc1` [Synthetic compound 7, N-(3-(1-(2-methoxyethyl)-1H-imidazol-4-yl)-1-(4-(trifluoromethyl)phenyl)-1H-indol-5-yl)acrylamide], the GI50 in experiment [1] was < 0.1 µM. Besides, in experiment [2], the IC50 is < 0.1 µM.
Take `C=CC(=O)Nc1ccc2c(c1)c(-c1ccco1)cn2-c1ccc(C(F)(F)F)cc1` [Synthetic compound 3, N-(3-(furan-2-yl)-1-(4-(trifluoromethyl)phenyl)-1H-indol-5-yl)acrylamide]: in experiment [1], the concentration for 50% growth inhibition (GI50) is < 0.1 µM. Also, the IC50 in experiment [2] was < 0.1 µM.
Regarding `C=CC(=O)Nc1cc2c(-c3cn(C)cn3)cn(-c3ccc(C(F)(F)F)cc3)c2cc1Cl` [Synthetic compound 10, N-(6-chloro-3-(1-methyl-1H-imidazol-4-yl)-1-(4-(trifluoromethyl)phenyl)-1H-indol-5-yl)acrylamide], the IC50 in experiment [2] was in the range of 0.1 to 0.5 µM.
For `C=CC(=O)Nc1ccc2c(c1)c(-c1cn(C)cn1)cn2-c1ccc(C(F)(F)F)cc1` [Synthetic compound 9, N-(3-(1-methyl-1H-imidazol-4-yl)-1-(4-(trifluoromethyl)phenyl)-1pyrrolo[2,3-b]pyridin-5-yl)acrylamide], the GI50 in experiment [1] was < 0.1 µM. The IC50 in experiment [2] was < 0.1 µM.
As to `C=CC(=O)Nc1ccc2c(c1)c(-c1ccccc1F)cn2-c1ccc(C(F)(F)F)cc1` [Synthetic compound 5, N-(3-(2-fluorophenyl)-1-(4-(trifluoromethyl)phenyl)-1H-indol-5-yl)acrylamide], the GI50 in experiment [1] is < 0.1 µM. In addition, in experiment [2], the 50% inhibitory concentration (IC50) was < 0.1 µM.
In the case of `C=C(F)C(=O)Nc1ccc2c(c1)c(-c1cn(C)cn1)cn2-c1ccc(C(F)(F)F)cc1` [Synthetic compound 6, 2-fluoro-N-(3-(1-methyl-1H-imidazol-4-yl)-1-(4-(trifluoromethyl)phenyl)-1H-indol-5-yl) acrylamide], the IC50 in experiment [2] fell in the range of 0.1 to 0.5 µM.
On to `C=CC(=O)Nc1ccc2c(c1)c(-c1cn(C3CCC3)cn1)cn2-c1ccc(C(F)(F)F)cc1` [Synthetic compound 4, N-(3-(1-cyclobutyl-1H-imidazol-4-yl)-1-(4-(trifluoromethyl)phenyl)-1H-indol-5-yl)acrylamide], for which the GI50 in experiment [1] was < 0.1 µM. Also, the IC50 in experiment [2] was < 0.1 µM.

As a reminder, the GI50 is the concentration giving 50% growth inhibition. A lower GI50 goes with more potent growth inhibition. In general, IC50 refers to the concentration that inhibits the measured activity by half.
